Laboratory results: the NIST ThermoML archive (doi:10.1021/je800591u)
± gives the expanded uncertainty stated by the source.

Details: Liquid, Ebulliometric method (Recirculating still)

| vapor or sublimation pressure (288.15 K) [kPa] | vapor or sublimation pressure (303.15 K) [kPa] | vapor or sublimation pressure (318.15 K) [kPa] | vapor or sublimation pressure (333.15 K) [kPa] | vapor or sublimation pressure (348.15 K) [kPa] | vapor or sublimation pressure (363.15 K) [kPa] | SMILES |
| --- | --- | --- | --- | --- | --- | --- |
| 335 ± 14 | 529 ± 14 | 804 ± 14 | 1176 ± 15 | 1664 ± 16 | 2294 ± 17 | FC(C(F)(F)F)C(F)(F)F [1,1,1,2,3,3,3-heptafluoropropane] |
| 223 ± 14 | 352 ± 14 | 536 ± 14 | 785 ± 14 | 1107 ± 15 | 1515 ± 15 | C=C(C)C [2-methylpropene] |
